Measured values: EP1977646A1, “Insecticidal hydroxyethyl thlourea derivatives” (Bayer CropScience AG, priority 2007, dated 2008)
Like-named read-outs stand apart in the source and are kept apart here.

Assays:
Myzus persicae [1] = assay: Myzus persicae - test (spray application); type: in vivo; details: application rate of 500 g/ha, Chinese cabbage leaf-disks sprayed, all instars
Protocol: Myzus persicae - test; (spray application)
(§1) To produce a suitable preparation of active compound, 1 part by weight of active compound is mixed with the stated amount of solvent and emulsifier, and the concentrate is diluted with emulsifier-containing water to the desired concentration.
Chinese cabbage (Brassica pekinesis) leaf-disks infected with all instars of the green peach aphid (Myzus persicae), are sprayed with a preparation of the active ingredient at the desired concentration.
After the specified period of time, mortality in % is determined. 100% means that all aphids have been killed; 0% means that none of the aphids have been killed.

[2] = logP (HCOOH) by HPLC, EEC-Directive 79/831, Annex V.A8; type: physicochemical; details: gradient method; for chromatographic logP: hplc acetonitrile/0.1% hcooh
Protocol: A stirred mixture of 600 mg (3,4 mmol) 4-fluoro-1-aminoindane and 778 mg (4.37 mmol) 1,1-thiocarbonyldiimidazole in dichloromethane was kept at ambient temperature for 1,5 h. After addition of 230 mg (3.74 mmol) 2-aminoethanol dissolved in 3 mL dichloromethane the resulting mixture was stirred for further 72 h at ambient temperature. Then, the mixture was diluted with ethyl acetate and washed with 1 N HCl and saturated NaHCO3 solution. After phase separation, the organic phase was dried with solid Na2SO4, filtered and evaporated under reduced pressure. The residue was purified by chromatography (silica gel, cyclohexane/ethyl acetate = vol. 5:1) to afford 350 mg 1-(4-fluoro-2,3-dihydro-1H-inden-1-yl)-3-(2-hydroxyethyl)thiourea. The NMR spectrum was consistent with the proposed structure. logP^(1)) = 1,74 [formula] ^1) logP (HCOOH) determined according to EEC-Directive 79/831, Annex V.A8 using HPLC (gradient method, acetonitrile/0.1% HCOOH)
logP (HCOOH) determined according to EEC-Directive 79/831, Annex V.A8 using HPLC (gradient method, acetonitrile/0.1% HCOOH)

Myzus persicae [3] = assay: Myzus-Test; oral (spray application); type: in vivo
Protocol: Myzus-Test; oral (spray application)
To produce a suitable preparation of active compound, 1 part by weight of active compound ist mixed with the stated amount of solvent and emulsifier, and the concentrate is diluted with emulsifier-containing water to the desired concentration.
Containers are infested with a mixed population of the green peach aphid (Myzus persicae), the aphids suck on a preparation of the active compound at the desired concentration.
After the specified period of time, mortality in % is determined. 100 % means that all aphids have been killed; 0 % means that none of the aphids have been killed.

Aphis gossypii = Aphis gossypii - test (leaf dip); type: in vivo; details: foliar, application rate of 20 ppm, cotton leaves dipped
Protocol: Aphis gossypii - test [table] To produce a suitable preparation of active compound, 1 part by weight of active compound is mixed with the stated amount of solvent and emulsifier, and the concentrate is diluted with emulsifier-containing water to the desired concentration. Cotton leaves (Gossypium hirsutum) which are heavily infested by the cotton aphid (Aphis gossypii) are treated by being dipped into the preparation of the active compound of the desired concentration. After the specified period of time, the mortality in % is determined. 100 % means that all the aphids have been killed; 0 % means that none of the aphids have been killed.

Tetranychus urticae = Tetranychus urticae - test; OP-resistant (spray application); type: in vivo; details: in Phaseolus vulgaris, read-out: activity (mortality in %)
Protocol: Tetranychus urticae - test; OP-resistant (spray application)
as §1
French bean (Phaseolus vulgaris) which are heavily infested with all stages of the two spotted spidermite (Tetranychus urticae), are sprayed with a preparation of the active ingredient at the desired concentration.
After the specified period of time, mortality in % is determined. 100% means that all spider mites have been killed and 0% means that none of the spider mites have been killed.

Myzus persicae [4] = assay: Myzus persicae - test (drench); type: in vivo; details: soil, application rate of 20 ppm, cabbage plants drenched
Protocol: as §1
Cabbage plants (Brassica oleracea) which are heavily infested by the green peach aphid (Myzus persicae) are treated by being drenched with the preparation of the active compound of the desired concentration.
After the specified period of time, mortality in % is determined. 100 % means that all the aphids have been killed; 0 % means that none of the aphids have been killed.

[5] = application rate of 100 ppm, aphids suck on preparation, mixed population

chromatographic logP [2] | Compound | mortality at 500 g/ha (Myzus persicae [1]) [%] | mortality at 20 ppm (Aphis gossypii) [%] | also measured
2.07 | COCCNC(=S)NC1CCc2ccccc21 (stereo not shown) [1-4, 1-(2,3-dihydro-1H-inden-1-yl)-3-(2-methoxyethyl)thiourea] | ≥ 80 |  | mortality at 100 ppm (Myzus persicae [3]; [5]): ≥ 80%
1.79 | OCCNC(=S)N[C@H]1CCCc2ccccc21 [4-2] | ≥ 80 | ≥ 80 | 
1.42 | OCCNC(=S)NC1CCOc2ccccc21 (stereo not shown) [3-1] | ≥ 80 |  | 
1.65 | OCCNC(=S)N[C@@H]1CCc2ccccc21 [1-3] |  |  | 

The remaining lines, values behind:

Compound | chromatographic logP [2] | mortality at 500 g/ha (Myzus persicae [1]) [%] | mortality at 20 ppm (Aphis gossypii) [%] | also measured
CC(CO)NC(=S)N[C@H]1CCc2ccccc21 (stereo partly shown) [1-21] | 1.78 |  |  | 
OCCNC(=S)N[C@H]1CCc2ccccc21 [1-2, 1-[(1S)-2,3-dihydro-1H-inden-1-yl]-3-(2-hydroxyethyl)thiourea] | 1.65 | ≥ 80 | ≥ 80 | mortality at 100 g/ha (Tetranychus urticae): ≥ 80%; mortality at 20 ppm (Myzus persicae [4]): ≥ 80%; logP (HCOOH) ([2]; acetonitrile/0.1% HCOOH): 1,56; mortality at 100 ppm (Myzus persicae [3]; [5]): ≥ 80%
OCCN(CCO)C(=S)N[C@H]1CCc2ccccc21 [1-105] | 1.64 |  |  | 
OCCNC(=S)NC1CCc2c(F)cccc21 (stereo not shown) [1-14, 1-(4-fluoro-2,3-dihydro-1H-inden-1-yl)-3-(2-hydroxyethyl)thiourea] | 1.74 | ≥ 80 | ≥ 80 | 
COCCNC(=S)NC1CCc2c(F)cccc21 (stereo not shown) [1-17] | 2.21 | ≥ 80 |  | mortality at 100 ppm (Myzus persicae [3]): ≥ 80%
OCCNC(=S)NC1CCc2c(F)ccc(F)c21 (stereo not shown) [1-83] | 1.68 |  |  | 
